Source: ChEMBL document CHEMBL1123660 (J Med Chem, 1987)

Experiments:
[1] = test system: Platelet-activating factor receptor (Oryctolagus cuniculus); test: Percent inhibition of [3H]PAF to platelet-activating factor (PAF) receptor from rabbit platelet membranes at; conditions: concentration not given here
Oryctolagus cuniculus = organism: Oryctolagus cuniculus; test: PAF antagonism was determined by rabbit platelet inhibition and neurophil aggregation and degranulation at 0.1 to 1 uM concentration.; type: functional

`CCCC1=C[C@]2(OC)C(=CC1=O)O[C@H](c1ccc(OC)c(OC)c1)[C@H]2C` gave an inhibition [1] of 61%.

`C=CCC1=C[C@@]2(OC)C(=CC1=O)O[C@H](c1ccc(OC)c(OC)c1)[C@H]2C` (stereo in doubt) [KADSURENONE] was tested, and the Ki (Oryctolagus cuniculus) was 0.058 µM.
